From PubChem BioAssay AID651650 (Sanford-Burnham Center for Chemical Genomics, 2012)
Active and inactive are the calls of the source.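 Rule for the calls: active = mean IC50 below 20 µM in each of the two panels, so potent in both; inactive = the rest.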

Target: Neuropilin-1 (Homo sapiens) (UniProt O14786)
Experiment: blockers of CendR peptide binding to NRP-1 – biochemical, FP and AlphaScreen panel, dose response (AID 651650)
Conditions: NRP-1 b1b2 / RPARPAR peptide binding, FP or AlphaScreen
[1] = AlphaScreen, run 1, individual panel run IC50
[2] = FP, run 1, individual panel run IC50
[3] = FP, run 2, individual panel run IC50

Sequence of Neuropilin-1 (Homo sapiens) (O14786 whole entry, looked up): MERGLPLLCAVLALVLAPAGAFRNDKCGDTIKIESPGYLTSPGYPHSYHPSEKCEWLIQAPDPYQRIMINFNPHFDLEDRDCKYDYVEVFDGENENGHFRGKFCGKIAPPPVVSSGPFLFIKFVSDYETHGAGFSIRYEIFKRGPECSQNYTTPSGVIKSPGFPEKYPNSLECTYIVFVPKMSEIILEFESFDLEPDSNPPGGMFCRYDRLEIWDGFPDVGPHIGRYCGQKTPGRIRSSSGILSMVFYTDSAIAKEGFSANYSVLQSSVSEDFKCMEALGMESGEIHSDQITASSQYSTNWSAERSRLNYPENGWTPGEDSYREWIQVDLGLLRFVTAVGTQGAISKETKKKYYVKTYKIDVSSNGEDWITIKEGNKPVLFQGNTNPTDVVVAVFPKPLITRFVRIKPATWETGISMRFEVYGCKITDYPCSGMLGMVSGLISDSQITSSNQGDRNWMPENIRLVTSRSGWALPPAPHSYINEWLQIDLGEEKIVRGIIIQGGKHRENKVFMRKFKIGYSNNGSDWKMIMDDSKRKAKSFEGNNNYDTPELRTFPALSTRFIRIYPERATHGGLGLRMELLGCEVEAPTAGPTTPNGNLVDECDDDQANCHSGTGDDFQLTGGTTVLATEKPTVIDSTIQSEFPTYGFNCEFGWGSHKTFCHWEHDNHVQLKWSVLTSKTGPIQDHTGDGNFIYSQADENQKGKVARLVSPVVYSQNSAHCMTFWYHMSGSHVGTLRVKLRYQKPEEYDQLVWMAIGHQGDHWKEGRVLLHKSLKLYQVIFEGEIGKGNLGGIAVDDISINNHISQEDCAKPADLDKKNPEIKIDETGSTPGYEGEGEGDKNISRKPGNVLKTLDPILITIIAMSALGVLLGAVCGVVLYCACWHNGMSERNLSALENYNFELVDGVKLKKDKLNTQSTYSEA

SMILES | IC50 (AlphaScreen, mean of runs) | IC50 [1] | IC50 (FP, mean of runs) | IC50 [2] | IC50 [3]
Cc1cc(C)n2c(Nc3ccc4c(c3)OCCO4)c(-c3ccccn3)nc2n1 | > 100 µM (inactive) | > 100 µM | > 95 µM (inactive) | > 95 µM | > 95 µM
CSCCC(NC(=O)c1ccc(Cl)cc1Cl)C(=O)NCC(c1cccs1)N(C)C (stereo not given) | > 100 µM (inactive) | > 100 µM | > 95 µM (inactive) | > 95 µM | > 95 µM
O=C(NC1CC1)c1ccc(COc2ccc(F)cc2)o1 | > 100 µM (inactive) | > 100 µM | > 95 µM (inactive) | > 95 µM | > 95 µM
C#CCOc1nc(C)cc(C)c1S(=O)(=O)c1ccccc1C | > 100 µM (inactive) | > 100 µM | > 95 µM (inactive) | > 95 µM | > 95 µM
Cc1ccccc1-n1ncc2c1CC(C)(C)CC2NC(=O)c1ccncc1 (stereo not given) | > 100 µM (inactive) | > 100 µM | > 95 µM (inactive) | > 95 µM | > 95 µM
O=C(c1ccccn1)N1CCN(S(=O)(=O)c2ccccc2)CC1 | inactive | 27.8 µM | > 95 µM (inactive) | > 95 µM | > 95 µM
COc1ccc(-c2csc(NCCc3nc4cc(C(=O)NCCCO)ccc4n3Cc3ccc(C)cc3)n2)cc1 | inactive | 27.6 µM | > 95 µM (inactive) | > 95 µM | > 95 µM
NC(N)=NCCC[C@H](NC(=O)OCc1ccccc1)C(=O)O | > 100 µM (inactive) | > 100 µM | > 95 µM (inactive) | > 95 µM | > 95 µM
COc1ccc(Cl)cc1NC(=O)C(C)N1CCc2ccccc21 (stereo not given) | inactive | 45.6 µM | inactive | 50 µM | 30.3 µM
O=C(COc1ccc(S(=O)(=O)N2CCCC2)cc1)Nc1ccc2c(c1)OCCO2 | > 100 µM (inactive) | > 100 µM | > 95 µM (inactive) | > 95 µM | > 95 µM
CC(C)(C)n1nc(-c2ccc(F)cc2)c2c(N)ncnc21 | > 100 µM (inactive) | > 100 µM | > 95 µM (inactive) | > 95 µM | > 95 µM
FC(F)(F)C1CC(c2cccs2)Nc2ncnn21 (stereo not given) | > 100 µM (inactive) | > 100 µM | > 95 µM (inactive) | > 95 µM | > 95 µM
Cc1nc(SCc2ccc(C(=O)O)cc2)nc2c1CCCC2 | > 100 µM (inactive) | > 100 µM | > 95 µM (inactive) | > 95 µM | > 95 µM
CSc1cccc(CN2CCN(Cc3ccccc3)C(CCO)C2)c1 (stereo not given) | > 100 µM (inactive) | > 100 µM | > 95 µM (inactive) | > 95 µM | > 95 µM
CC(CN1CCOCC1)OC(=O)c1ccc2c(c1)OCCO2 (stereo not given) | > 100 µM (inactive) | > 100 µM | > 95 µM (inactive) | > 95 µM | > 95 µM
Clc1nc(-c2ccccn2)nc2scc(-c3ccccc3)c12 | > 100 µM (inactive) | > 100 µM | > 95 µM (inactive) | > 95 µM | > 95 µM
COCCNC(=O)c1cc(-c2ccccc2)nn1CC1CC(c2cccc([N+](=O)[O-])c2)=NO1 (stereo not given) | > 100 µM (inactive) | > 100 µM | > 95 µM (inactive) | > 95 µM | > 95 µM
COC(=O)c1ccc(Cn2nnc3c(=O)[nH]c(C4CCCN(S(=O)(=O)c5cccc(Cl)c5)C4)nc32)cc1 (stereo not given) | > 100 µM (inactive) | > 100 µM | > 95 µM (inactive) | > 95 µM | > 95 µM
Cc1ccc(NC(=S)N2CCN(Cc3ccccc3)CC2)cc1 | > 100 µM (inactive) | > 100 µM | > 95 µM (inactive) | > 95 µM | > 95 µM
CC(/C=C/c1ccccc1)=N\NC(=O)CCc1ccccc1 | > 100 µM (inactive) | > 100 µM | > 95 µM (inactive) | > 95 µM | > 95 µM
CC(=NN(Cc1ccccc1)c1ccccc1)c1ccccc1 | inactive | 41.3 µM | > 95 µM (inactive) | > 95 µM | > 95 µM
CCc1ccc(C2CC(=O)N(c3cccc(F)c3)C3=C2C(=O)OC3)cc1 (stereo not given) | > 100 µM (inactive) | > 100 µM | > 95 µM (inactive) | > 95 µM | > 95 µM
C=CCOc1ccc(C2/C(=C(\O)c3c(C)[nH]c(C(=O)OC)c3C)C(=O)C(=O)N2CCN(C)C)cc1 (stereo not given) | > 100 µM (inactive) | > 100 µM | > 95 µM (inactive) | > 95 µM | > 95 µM

SMILES | IC50 (AlphaScreen, mean of runs) | IC50 [1] | IC50 (FP, mean of runs) | IC50 [2] | IC50 [3]
COc1ccc(/C=N/NC(=O)c2cc(C(C)(C)C)[nH]n2)cc1COc1ccc(F)cc1F | > 100 µM (inactive) | > 100 µM | > 95 µM (inactive) | > 95 µM | > 95 µM
CCCCOc1ccc(C(=O)N/C(=C/C=C/c2ccccc2)C(=O)NCCCO)cc1 | > 100 µM (inactive) | > 100 µM | > 95 µM (inactive) | > 95 µM | > 95 µM
CCOC(=O)/C=C/COc1ccccc1[N+](=O)[O-] | > 100 µM (inactive) | > 100 µM | > 95 µM (inactive) | > 95 µM | > 95 µM
O=C(O)c1ccccc1CSc1ccccn1 | 16.5 µM | 16.5 µM | > 95 µM (inactive) | > 95 µM | > 95 µM
COC(=O)c1c(NC(=O)CN(c2ccccc2)S(C)(=O)=O)sc2c1CCCC2 | 15.5 µM | 15.5 µM | > 95 µM (inactive) | > 95 µM | > 95 µM
Cc1cnccc1CNC(=O)CC1C(=O)NCCN1CC(C)(C)C (stereo not given) | > 100 µM (inactive) | > 100 µM | > 95 µM (inactive) | > 95 µM | > 95 µM
Cc1cc2c(=O)[nH]cnc2s1 | > 100 µM (inactive) | > 100 µM | > 95 µM (inactive) | > 95 µM | > 95 µM
Cc1ccc(/C=N/Nc2nc3ccccc3[nH]2)s1 | > 100 µM (inactive) | > 100 µM | > 95 µM (inactive) | > 95 µM | > 95 µM
CCN(CCCNC(=O)CNC(=O)c1nn(-c2ccc(OC)cc2OC)c(=O)c2ccccc12)c1cccc(C)c1 | > 100 µM (inactive) | > 100 µM | > 95 µM (inactive) | > 95 µM | > 95 µM
CC1(C)CN=C(Nc2ccc(F)c(Cl)c2)S1 | 18.9 µM | 18.9 µM | > 95 µM (inactive) | > 95 µM | > 95 µM
Cc1ccccc1Oc1ccc2c(c1)[C@@H]1C[C@H](N(C)C(=O)Nc3cc(Cl)cc(Cl)c3)[C@H]([C@H](C)O)C(=O)N1CC2 | 12.3 µM | 12.3 µM | > 95 µM (inactive) | > 95 µM | > 95 µM
CC(NCCOCCOc1ccccc1)c1ccccc1 (stereo not given) | > 100 µM (inactive) | > 100 µM | > 95 µM (inactive) | > 95 µM | > 95 µM
O=C(O)CCCC(=O)N1CCc2cc(S(=O)(=O)N3CCc4ccccc43)ccc21 | > 100 µM (inactive) | > 100 µM | > 95 µM (inactive) | > 95 µM | > 95 µM
COc1ccc(NC(=O)C(C)Sc2ccccc2)cc1 (stereo not given) | > 100 µM (inactive) | > 100 µM | > 95 µM (inactive) | > 95 µM | > 95 µM
O=c1oc(Nc2ccccc2F)nc2ccccc12 | > 100 µM (inactive) | > 100 µM | > 95 µM (inactive) | > 95 µM | > 95 µM
NC(=O)C1=C[C@H](c2ccc(Br)cc2)C[C@H](OCc2ccc(CO)cc2)O1 | > 100 µM (inactive) | > 100 µM | > 95 µM (inactive) | > 95 µM | > 95 µM
CN1CCC(=NNC(=O)c2ccco2)CC1 | > 100 µM (inactive) | > 100 µM | > 95 µM (inactive) | > 95 µM | > 95 µM
CCOC(=O)c1c2ccc(OCC(=O)NN)cc2n2ccccc12 | > 100 µM (inactive) | > 100 µM | > 95 µM (inactive) | > 95 µM | > 95 µM
CC1CCC(NC(=O)C2CCC(CNS(=O)(=O)c3cccc4cccnc34)CC2)CC1 (stereo not given) | > 100 µM (inactive) | > 100 µM | > 95 µM (inactive) | > 95 µM | > 95 µM
COc1ccc(C2CC(C(F)(F)F)n3nc(C(=O)O)c(Cl)c3N2)cc1OC (stereo not given) | > 100 µM (inactive) | > 100 µM | inactive | 53.3 µM | 61.7 µM
Cc1cccc(NS(=O)(=O)c2cccs2)c1 | > 100 µM (inactive) | > 100 µM | > 95 µM (inactive) | > 95 µM | > 95 µM
CC(C)Oc1ccc(F)cc1-c1cc(C(=O)NCc2ccc(F)cc2)[nH]n1 | > 100 µM (inactive) | > 100 µM | > 95 µM (inactive) | > 95 µM | > 95 µM
CC(=O)Oc1cc2c(c3ccccc13)CCC2=O | > 100 µM (inactive) | > 100 µM | > 95 µM (inactive) | > 95 µM | > 95 µM
